Like-named read-outs stand apart in the source and are kept apart here.
Key:
EPHA2 = target: T1, EPHA2 (Homo sapiens, UniProt P29317); experiment: Kinase panel profiling: EPHA2; format: biochemical; conditions: ATP equal to KM
T1 construct: purchased Thermo Fisher Scientific (Invitrogen) SelectScreen (Z'-LYTE)

JAK1 = target: T2, JAK1 (Homo sapiens, UniProt P23458); experiment: Kinase panel profiling: JAK1; format: biochemical; conditions: ATP equal to KM
T2 construct: purchased Thermo Fisher Scientific (Invitrogen) SelectScreen (Z'-LYTE)

AURKA (Aurora A) = target: T3, AURKA (Aurora A) (Homo sapiens, UniProt O14965); experiment: Kinase panel profiling: AURKA; format: biochemical; conditions: ATP equal to KM
T3 construct: purchased Thermo Fisher Scientific (Invitrogen) SelectScreen (Z'-LYTE)
T3 sequence (O14965 1-403): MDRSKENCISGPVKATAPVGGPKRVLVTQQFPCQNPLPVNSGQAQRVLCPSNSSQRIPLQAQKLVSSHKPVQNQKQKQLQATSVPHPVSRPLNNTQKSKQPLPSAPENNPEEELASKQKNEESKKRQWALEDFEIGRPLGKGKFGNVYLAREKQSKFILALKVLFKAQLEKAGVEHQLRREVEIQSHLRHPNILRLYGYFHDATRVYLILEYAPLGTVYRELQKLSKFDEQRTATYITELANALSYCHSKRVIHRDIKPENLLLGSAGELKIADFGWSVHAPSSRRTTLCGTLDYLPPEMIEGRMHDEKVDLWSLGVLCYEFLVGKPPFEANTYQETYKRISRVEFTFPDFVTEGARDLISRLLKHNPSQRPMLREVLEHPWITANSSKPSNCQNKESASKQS

[1] = tested on: KIT-positive cell line GIST-T1; experiment: GIST-T1 CellTiter-Glo cell viability assay; format: cell-based; conditions: Homo sapiens, GISTT1; cellular proliferation, GIST-T1, 72 h
[2] = Mouse liver microsome intrinsic clearance, Phase I; format: in vitro ADME; conditions: in vitro intrinsic clearance
FLT3 = target: T4, FLT3 (Homo sapiens, UniProt P36888); experiment: Kinase panel profiling: FLT3; format: biochemical; conditions: ATP equal to KM
T4 construct: purchased Thermo Fisher Scientific (Invitrogen) SelectScreen (Z'-LYTE)
T4 sequence (P36888 27-993): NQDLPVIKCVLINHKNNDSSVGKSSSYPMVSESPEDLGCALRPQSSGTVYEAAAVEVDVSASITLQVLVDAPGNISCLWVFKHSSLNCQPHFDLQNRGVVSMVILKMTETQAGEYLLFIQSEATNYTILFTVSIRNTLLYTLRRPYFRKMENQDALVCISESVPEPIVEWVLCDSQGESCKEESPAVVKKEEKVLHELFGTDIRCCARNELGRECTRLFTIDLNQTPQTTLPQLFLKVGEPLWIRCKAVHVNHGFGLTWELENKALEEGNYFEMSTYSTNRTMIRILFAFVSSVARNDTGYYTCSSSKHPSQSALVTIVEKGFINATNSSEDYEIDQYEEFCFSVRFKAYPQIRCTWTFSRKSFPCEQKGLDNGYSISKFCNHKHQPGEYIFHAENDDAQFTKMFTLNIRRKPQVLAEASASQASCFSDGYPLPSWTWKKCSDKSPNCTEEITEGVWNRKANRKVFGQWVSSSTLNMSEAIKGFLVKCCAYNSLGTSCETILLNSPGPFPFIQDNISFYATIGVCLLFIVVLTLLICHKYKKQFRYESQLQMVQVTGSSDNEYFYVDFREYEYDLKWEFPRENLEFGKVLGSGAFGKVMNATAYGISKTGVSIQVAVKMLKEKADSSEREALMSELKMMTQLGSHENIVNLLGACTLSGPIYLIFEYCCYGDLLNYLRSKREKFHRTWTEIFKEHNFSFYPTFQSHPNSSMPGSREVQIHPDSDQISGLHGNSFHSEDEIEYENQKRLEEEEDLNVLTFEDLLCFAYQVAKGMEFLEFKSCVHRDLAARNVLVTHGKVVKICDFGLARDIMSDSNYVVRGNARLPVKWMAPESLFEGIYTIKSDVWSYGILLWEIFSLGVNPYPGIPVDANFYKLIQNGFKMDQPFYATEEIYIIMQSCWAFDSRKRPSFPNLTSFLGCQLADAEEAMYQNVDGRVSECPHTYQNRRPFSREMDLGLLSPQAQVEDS

CSF1R [3] = target: T5, CSF1R (Homo sapiens, UniProt P07333); experiment: CSF1R enzymatic inhibition, TR-FRET-based LANCE Ultra assay; format: biochemical; conditions: single 8-point titrations, ATP concentration 25 µM, read-out: Enz. IC50
T5 sequence (P07333 539-972 limits assumed): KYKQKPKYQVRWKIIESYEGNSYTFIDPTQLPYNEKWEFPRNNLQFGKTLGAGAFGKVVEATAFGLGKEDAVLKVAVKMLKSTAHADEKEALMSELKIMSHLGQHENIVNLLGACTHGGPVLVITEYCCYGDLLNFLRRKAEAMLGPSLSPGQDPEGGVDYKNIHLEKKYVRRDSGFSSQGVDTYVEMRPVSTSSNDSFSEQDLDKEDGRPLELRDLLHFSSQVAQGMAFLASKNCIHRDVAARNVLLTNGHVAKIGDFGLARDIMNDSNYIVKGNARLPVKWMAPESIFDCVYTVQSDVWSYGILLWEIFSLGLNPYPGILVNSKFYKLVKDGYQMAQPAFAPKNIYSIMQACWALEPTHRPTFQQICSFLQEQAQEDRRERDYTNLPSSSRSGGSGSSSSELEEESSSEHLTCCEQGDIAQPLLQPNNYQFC

[4] = tested on: IL-3 dependent Ba/F3 cell line (CSF1R independent); experiment: Control assay for cellular toxicity, Ba/F3 cells dependent on IL-3; format: cell-based; conditions: Mus musculus, BaF3; Ba/F3 cells dependent on IL-3, control for cellular toxicity
cKIT kinase = target: T6, cKIT kinase (Homo sapiens, UniProt P10721); experiment: KIT inhibition (KD), TR-FRET tracer displacement; format: binding; conditions: kinase tracer 236, anti-GST antibody Eu-conjugate, read-out: KIT enz. KD
T6 construct: purchased Carna Biosciences

ERBB2 (HER2) = target: T7, ERBB2 (HER2) (Homo sapiens, UniProt P04626); experiment: Kinase panel profiling: ERBB2; format: biochemical; conditions: ATP equal to KM
T7 construct: purchased Thermo Fisher Scientific (Invitrogen) SelectScreen (Z'-LYTE)

YES1 = YES1 (Homo sapiens, UniProt P07947); experiment: Kinase panel profiling: YES1; format: biochemical; conditions: ATP equal to KM
FLT1 (VEGFR1) = target: T8, FLT1 (VEGFR1) (Homo sapiens, UniProt P17948); experiment: Kinase panel profiling: FLT1; format: biochemical; conditions: ATP equal to KM
T8 construct: purchased Thermo Fisher Scientific (Invitrogen) SelectScreen (Z'-LYTE)

LYN A = target: T9, LYN A (Homo sapiens, UniProt P07948); experiment: Kinase panel profiling: LYN A; format: biochemical; conditions: ATP equal to KM
T9 construct: purchased Thermo Fisher Scientific (Invitrogen) SelectScreen (Z'-LYTE)

CSF1R [5] = target: CSF1R (Homo sapiens, UniProt P07333); experiment: CSF1R enzymatic IC50, Z-LYTE assay platform; format: biochemical
Target sequence in this assay (P07333 20-972): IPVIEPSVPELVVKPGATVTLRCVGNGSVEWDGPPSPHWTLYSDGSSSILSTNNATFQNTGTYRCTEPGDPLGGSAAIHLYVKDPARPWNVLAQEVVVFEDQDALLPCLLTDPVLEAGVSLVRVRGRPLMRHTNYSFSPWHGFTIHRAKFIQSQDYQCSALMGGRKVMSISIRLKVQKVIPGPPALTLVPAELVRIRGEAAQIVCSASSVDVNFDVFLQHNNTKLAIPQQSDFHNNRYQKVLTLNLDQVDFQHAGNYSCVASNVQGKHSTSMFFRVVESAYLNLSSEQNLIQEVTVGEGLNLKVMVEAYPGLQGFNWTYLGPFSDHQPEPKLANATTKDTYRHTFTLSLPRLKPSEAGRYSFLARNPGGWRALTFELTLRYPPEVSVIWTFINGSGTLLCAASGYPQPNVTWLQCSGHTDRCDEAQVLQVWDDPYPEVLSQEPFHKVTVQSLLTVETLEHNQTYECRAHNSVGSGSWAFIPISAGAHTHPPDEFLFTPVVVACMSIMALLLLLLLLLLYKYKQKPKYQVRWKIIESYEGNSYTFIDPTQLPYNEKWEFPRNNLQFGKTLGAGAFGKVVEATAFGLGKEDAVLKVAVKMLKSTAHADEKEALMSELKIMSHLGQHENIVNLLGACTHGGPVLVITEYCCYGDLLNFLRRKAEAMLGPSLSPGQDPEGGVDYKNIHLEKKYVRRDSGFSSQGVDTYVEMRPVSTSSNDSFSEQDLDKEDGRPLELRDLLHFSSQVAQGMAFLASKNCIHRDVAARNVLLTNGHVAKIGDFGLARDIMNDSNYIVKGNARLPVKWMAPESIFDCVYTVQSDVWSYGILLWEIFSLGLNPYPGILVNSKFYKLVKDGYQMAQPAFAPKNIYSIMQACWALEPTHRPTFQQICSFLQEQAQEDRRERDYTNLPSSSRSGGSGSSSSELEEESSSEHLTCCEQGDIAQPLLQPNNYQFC

[6] = 1000 nM test concentration, read-out: Average inhibition (%)
[7] = 1000 nM, first data point, read-out: Inhibition (%)
[8] = 1000 nM, second data point, read-out: Inhibition (%)

T7 sequence (P04626 23-1255): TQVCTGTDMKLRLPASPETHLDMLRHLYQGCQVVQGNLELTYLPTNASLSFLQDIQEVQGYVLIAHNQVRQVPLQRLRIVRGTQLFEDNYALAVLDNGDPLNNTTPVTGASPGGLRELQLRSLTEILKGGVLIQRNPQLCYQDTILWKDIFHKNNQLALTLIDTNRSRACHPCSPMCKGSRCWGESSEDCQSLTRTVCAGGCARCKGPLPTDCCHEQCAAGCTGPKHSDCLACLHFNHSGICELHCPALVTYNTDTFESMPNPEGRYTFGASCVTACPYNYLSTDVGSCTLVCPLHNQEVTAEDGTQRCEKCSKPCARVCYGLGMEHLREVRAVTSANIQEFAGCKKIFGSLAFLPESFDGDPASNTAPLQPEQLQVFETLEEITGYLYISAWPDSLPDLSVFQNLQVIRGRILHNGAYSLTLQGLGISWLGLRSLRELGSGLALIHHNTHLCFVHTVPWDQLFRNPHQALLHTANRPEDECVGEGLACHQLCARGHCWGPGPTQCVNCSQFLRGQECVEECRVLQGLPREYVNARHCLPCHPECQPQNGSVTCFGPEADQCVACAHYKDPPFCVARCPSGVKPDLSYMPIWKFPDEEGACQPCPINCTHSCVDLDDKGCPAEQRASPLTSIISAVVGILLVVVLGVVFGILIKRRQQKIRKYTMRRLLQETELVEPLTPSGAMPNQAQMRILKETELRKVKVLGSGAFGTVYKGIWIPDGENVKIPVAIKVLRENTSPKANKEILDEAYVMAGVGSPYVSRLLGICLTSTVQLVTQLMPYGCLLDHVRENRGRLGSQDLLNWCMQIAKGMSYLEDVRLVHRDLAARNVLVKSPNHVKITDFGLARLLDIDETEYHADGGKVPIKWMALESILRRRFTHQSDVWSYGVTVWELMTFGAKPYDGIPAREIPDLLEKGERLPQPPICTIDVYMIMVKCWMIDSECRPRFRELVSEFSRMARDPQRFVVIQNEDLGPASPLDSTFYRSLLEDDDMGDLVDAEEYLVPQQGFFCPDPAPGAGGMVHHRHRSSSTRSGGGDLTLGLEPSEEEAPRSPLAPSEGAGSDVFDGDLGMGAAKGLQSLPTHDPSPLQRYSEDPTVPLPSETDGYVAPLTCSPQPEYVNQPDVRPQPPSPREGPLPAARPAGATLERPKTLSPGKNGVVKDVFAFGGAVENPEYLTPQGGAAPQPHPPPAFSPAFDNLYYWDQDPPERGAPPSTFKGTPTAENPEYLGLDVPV
T1 sequence (P29317 24-976): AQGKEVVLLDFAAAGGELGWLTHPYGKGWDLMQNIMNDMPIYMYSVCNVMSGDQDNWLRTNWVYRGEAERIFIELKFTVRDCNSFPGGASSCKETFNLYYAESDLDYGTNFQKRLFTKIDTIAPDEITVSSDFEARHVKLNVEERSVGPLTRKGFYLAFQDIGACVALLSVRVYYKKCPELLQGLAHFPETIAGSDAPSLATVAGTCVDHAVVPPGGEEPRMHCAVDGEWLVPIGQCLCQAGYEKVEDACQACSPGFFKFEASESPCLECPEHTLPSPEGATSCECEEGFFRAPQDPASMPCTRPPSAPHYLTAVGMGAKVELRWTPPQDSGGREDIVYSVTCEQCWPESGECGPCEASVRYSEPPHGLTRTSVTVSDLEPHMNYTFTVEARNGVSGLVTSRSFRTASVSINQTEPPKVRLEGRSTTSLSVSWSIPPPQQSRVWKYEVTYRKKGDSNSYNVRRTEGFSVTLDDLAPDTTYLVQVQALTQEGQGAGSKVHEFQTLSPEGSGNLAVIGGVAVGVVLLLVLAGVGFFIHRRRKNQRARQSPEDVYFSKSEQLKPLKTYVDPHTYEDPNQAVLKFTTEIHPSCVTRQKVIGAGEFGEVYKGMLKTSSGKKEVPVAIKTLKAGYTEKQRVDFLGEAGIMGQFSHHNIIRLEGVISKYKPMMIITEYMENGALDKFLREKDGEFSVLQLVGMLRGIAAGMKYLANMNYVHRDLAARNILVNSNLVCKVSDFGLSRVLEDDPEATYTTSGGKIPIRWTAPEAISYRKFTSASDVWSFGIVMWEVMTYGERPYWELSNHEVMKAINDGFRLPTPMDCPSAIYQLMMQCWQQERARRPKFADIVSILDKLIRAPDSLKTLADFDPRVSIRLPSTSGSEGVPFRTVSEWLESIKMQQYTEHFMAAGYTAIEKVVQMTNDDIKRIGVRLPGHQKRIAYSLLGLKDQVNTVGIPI
T8 sequence (P17948 27-1338): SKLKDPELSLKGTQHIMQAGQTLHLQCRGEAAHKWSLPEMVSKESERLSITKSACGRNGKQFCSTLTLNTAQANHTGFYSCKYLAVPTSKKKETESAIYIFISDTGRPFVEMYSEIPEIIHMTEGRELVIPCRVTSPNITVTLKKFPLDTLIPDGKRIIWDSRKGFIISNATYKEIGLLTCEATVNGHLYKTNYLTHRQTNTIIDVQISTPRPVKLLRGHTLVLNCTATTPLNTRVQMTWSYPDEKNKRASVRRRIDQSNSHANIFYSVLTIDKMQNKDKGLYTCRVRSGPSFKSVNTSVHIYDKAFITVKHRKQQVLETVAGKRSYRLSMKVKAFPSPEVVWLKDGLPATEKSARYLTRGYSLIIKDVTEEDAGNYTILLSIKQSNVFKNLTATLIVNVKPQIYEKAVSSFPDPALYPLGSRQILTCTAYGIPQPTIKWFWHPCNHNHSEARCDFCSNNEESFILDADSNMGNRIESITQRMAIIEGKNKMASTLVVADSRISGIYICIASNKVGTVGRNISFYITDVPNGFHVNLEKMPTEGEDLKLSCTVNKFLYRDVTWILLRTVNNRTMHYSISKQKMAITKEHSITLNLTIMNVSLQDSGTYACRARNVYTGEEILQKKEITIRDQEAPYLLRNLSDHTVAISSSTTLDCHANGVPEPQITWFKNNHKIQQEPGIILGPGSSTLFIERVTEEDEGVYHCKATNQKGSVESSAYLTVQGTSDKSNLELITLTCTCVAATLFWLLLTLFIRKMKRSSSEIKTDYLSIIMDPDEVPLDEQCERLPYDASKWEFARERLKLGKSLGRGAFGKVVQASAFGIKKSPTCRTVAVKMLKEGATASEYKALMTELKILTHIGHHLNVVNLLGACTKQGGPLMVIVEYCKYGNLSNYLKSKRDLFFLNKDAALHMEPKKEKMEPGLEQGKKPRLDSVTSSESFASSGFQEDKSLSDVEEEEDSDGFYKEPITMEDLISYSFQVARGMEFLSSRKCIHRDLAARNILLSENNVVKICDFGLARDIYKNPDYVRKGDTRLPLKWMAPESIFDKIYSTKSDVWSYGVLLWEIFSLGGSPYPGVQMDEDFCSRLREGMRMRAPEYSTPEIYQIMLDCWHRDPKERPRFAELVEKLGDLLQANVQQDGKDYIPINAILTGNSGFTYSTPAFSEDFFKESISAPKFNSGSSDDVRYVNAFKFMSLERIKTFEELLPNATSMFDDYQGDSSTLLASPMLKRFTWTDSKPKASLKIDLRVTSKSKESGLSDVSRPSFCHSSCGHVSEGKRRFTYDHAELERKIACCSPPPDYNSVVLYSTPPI
Sequence of YES1 (P07947 whole entry): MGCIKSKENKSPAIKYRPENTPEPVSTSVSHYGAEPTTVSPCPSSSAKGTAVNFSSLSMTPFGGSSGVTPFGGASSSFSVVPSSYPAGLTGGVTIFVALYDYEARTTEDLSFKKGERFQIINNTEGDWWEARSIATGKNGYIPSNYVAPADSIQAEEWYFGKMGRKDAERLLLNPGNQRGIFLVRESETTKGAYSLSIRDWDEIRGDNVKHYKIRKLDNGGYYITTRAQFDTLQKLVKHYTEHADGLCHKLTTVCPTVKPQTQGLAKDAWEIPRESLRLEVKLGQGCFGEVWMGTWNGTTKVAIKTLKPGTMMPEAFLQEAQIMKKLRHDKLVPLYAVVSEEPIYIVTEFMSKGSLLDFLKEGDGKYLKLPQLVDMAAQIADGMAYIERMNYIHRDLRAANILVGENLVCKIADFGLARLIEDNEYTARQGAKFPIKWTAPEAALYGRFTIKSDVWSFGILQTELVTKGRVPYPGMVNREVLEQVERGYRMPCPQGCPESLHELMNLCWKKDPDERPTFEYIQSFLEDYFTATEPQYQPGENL

SMILES: Cc1cccc(CN(C)c2ncnc3[nH]c(-c4cn(Cc5cccnc5)nn4)cc23)c1 [Compound 27a, N-Methyl-N-(3-methylbenzyl)-6-(1-(pyridin-3-ylmethyl)-1H-1,2,3-triazol-4-yl)-7H-pyrrolo[2,3-d]pyrimidin-4-amine]
- inhibition at 1 µM (EPHA2; [6]): 89%
- inhibition at 1 µM (EPHA2; [7]): 88%
- inhibition at 1 µM (EPHA2; [8]): 91%
- inhibition at 1 µM (JAK1; [6]): 9%
- inhibition at 1 µM (JAK1; [7]): 22%
- inhibition at 1 µM (JAK1; [8]): -3%
- inhibition at 1 µM (AURKA (Aurora A); [6]): 38%
- inhibition at 1 µM (AURKA (Aurora A); [7]): 35%
- inhibition at 1 µM (AURKA (Aurora A); [8]): 40%
- IC50 [1]: > 30000 nM
- MLM [2]: 295 µL/min/mg
- inhibition at 1 µM (FLT3; [6]): 44%
- inhibition at 1 µM (FLT3; [7]): 42%
- inhibition at 1 µM (FLT3; [8]): 45%
- IC50 (CSF1R [3]): < 1 nM
- IC50 [4]: > 10000 nM
- Kd (cKIT kinase): 793 nM
- inhibition at 1 µM (ERBB2 (HER2); [6]): 32%
- inhibition at 1 µM (ERBB2 (HER2); [7]): 33%
- inhibition at 1 µM (ERBB2 (HER2); [8]): 32%
- inhibition at 1 µM (YES1; [6]): 101%
- inhibition at 1 µM (YES1; [7]): 102%
- inhibition at 1 µM (YES1; [8]): 99%
- inhibition at 1 µM (FLT1 (VEGFR1); [6]): 31%
- inhibition at 1 µM (FLT1 (VEGFR1); [7]): 32%
- inhibition at 1 µM (FLT1 (VEGFR1); [8]): 30%
- inhibition at 1 µM (LYN A; [6]): 66%
- inhibition at 1 µM (LYN A; [7]): 66%
- Hill coefficient (CSF1R [5]; Z-LYTE CSF1R IC50 curve): 0.903
- IC50 (CSF1R [5]; Z-LYTE, 10-point titrations in duplicates, ATP equal to KM ca. 10 µM, read-out: CSF1R enz. IC50): 0.4 ± 0.2 nM

Reference: paper PMC12196347, “Evaluating Triazole-Substituted Pyrrolopyrimidines as CSF1R Inhibitors” (Molecules, 2025)
